± gives the expanded uncertainty stated by the source.
Assay: xn = mol fraction of the nth substance listed
Settings: Liquid; for viscosity: Capillary tube (Ostwald / Ubbelohde) method; for mass density: Vibrating tube method

CC(C)CCCC(C)CCCC(C)CCCCC(C)CCCC(C)CCCC(C)C (stereo not drawn) [2,6,10,15,19,23-hexamethyltetracosane] + O=C=O
Settings | mass density [kg/m3] | viscosity [mPa·s]
313.15 K, 2790 kPa, x2 = 0.199 | 796.7 ± 2.4 | 11.4 ± 0.27
313.15 K, 3900 kPa, x2 = 0.299 | 799.1 ± 2.4 | 9.2 ± 0.22
313.15 K, 5300 kPa, x2 = 0.519 | 804.5 ± 2.4 | 5.1 ± 0.14
313.15 K, 11290 kPa, x2 = 0.519 | 810.3 ± 2.5 | 5.59 ± 0.15
313.15 K, 12320 kPa, x2 = 0.299 | 805.8 ± 2.4 | 10.5 ± 0.25
313.15 K, 12560 kPa, x2 = 0.199 | 804.5 ± 2.4 | 13.39 ± 0.32
313.15 K, 21910 kPa, x2 = 0.519 | 819.7 ± 2.5 | 6.47 ± 0.18
313.15 K, 23100 kPa, x2 = 0.299 | 813.6 ± 2.5 | 12.46 ± 0.3
313.15 K, 23440 kPa, x2 = 0.199 | 812.5 ± 2.5 | 16.14 ± 0.39
313.15 K, 42900 kPa, x2 = 0.519 | 836.1 ± 2.6 | 8.58 ± 0.24
313.15 K, 44510 kPa, x2 = 0.299 | 828.1 ± 2.5 | 17.08 ± 0.42
313.15 K, 45240 kPa, x2 = 0.199 | 826.3 ± 2.5 | 22.88 ± 0.57
313.15 K, 57150 kPa, x2 = 0.519 | 846 ± 2.6 | 10.52 ± 0.3
313.15 K, 58570 kPa, x2 = 0.299 | 836.5 ± 2.6 | 21.56 ± 0.53
313.15 K, 60140 kPa, x2 = 0.199 | 834.5 ± 2.6 | 28.7 ± 0.7
313.15 K, 71140 kPa, x2 = 0.519 | 854.8 ± 2.6 | 12.5 ± 0.37
313.15 K, 73410 kPa, x2 = 0.299 | 844.9 ± 2.6 | 26.51 ± 0.65
313.15 K, 74430 kPa, x2 = 0.199 | 841.6 ± 2.6 | 35.87 ± 0.87
338.15 K, 3100 kPa, x2 = 0.199 | 780.2 ± 2.4 | 5.61 ± 0.16
338.15 K, 3320 kPa, x2 = 0.299 | 782.1 ± 2.4 | 4.69 ± 0.12
338.15 K, 6440 kPa, x2 = 0.519 | 787.1 ± 2.4 | 2.96 ± 0.07
338.15 K, 10860 kPa, x2 = 0.519 | 791.5 ± 2.4 | 3.18 ± 0.08
338.15 K, 11180 kPa, x2 = 0.299 | 788.3 ± 2.4 | 5.36 ± 0.13
338.15 K, 11690 kPa, x2 = 0.199 | 787.3 ± 2.4 | 6.41 ± 0.17
338.15 K, 21260 kPa, x2 = 0.519 | 801 ± 2.4 | 3.58 ± 0.09
338.15 K, 21990 kPa, x2 = 0.199 | 795.1 ± 2.4 | 7.61 ± 0.21
338.15 K, 21990 kPa, x2 = 0.299 | 796.2 ± 2.4 | 6.16 ± 0.16
338.15 K, 42140 kPa, x2 = 0.519 | 817.7 ± 2.5 | 4.78 ± 0.12
338.15 K, 42690 kPa, x2 = 0.299 | 810.4 ± 2.5 | 8.3 ± 0.21
338.15 K, 42870 kPa, x2 = 0.199 | 808.7 ± 2.5 | 10.48 ± 0.3
338.15 K, 56660 kPa, x2 = 0.519 | 827.7 ± 2.5 | 5.67 ± 0.15
338.15 K, 57330 kPa, x2 = 0.299 | 819.2 ± 2.5 | 10.09 ± 0.26
338.15 K, 57570 kPa, x2 = 0.199 | 817.1 ± 2.5 | 12.79 ± 0.37
338.15 K, 69970 kPa, x2 = 0.199 | 823.5 ± 2.6 | 15.43 ± 0.48
338.15 K, 70400 kPa, x2 = 0.519 | 836.4 ± 2.6 | 6.59 ± 0.17
338.15 K, 71030 kPa, x2 = 0.299 | 826.9 ± 2.6 | 12.17 ± 0.32
363.15 K, 2670 kPa, x2 = 0.199 | 763.2 ± 2.3 | 3.2 ± 0.08
363.15 K, 3820 kPa, x2 = 0.299 | 766.2 ± 2.3 | 2.86 ± 0.07
363.15 K, 7280 kPa, x2 = 0.519 | 769.5 ± 2.3 | 1.93 ± 0.05
363.15 K, 10740 kPa, x2 = 0.519 | 772.7 ± 2.3 | 2.06 ± 0.05
363.15 K, 10840 kPa, x2 = 0.299 | 771.7 ± 2.3 | 3.14 ± 0.08
363.15 K, 11090 kPa, x2 = 0.199 | 770.2 ± 2.3 | 3.71 ± 0.09
363.15 K, 21180 kPa, x2 = 0.299 | 779.2 ± 2.4 | 3.59 ± 0.09
363.15 K, 21340 kPa, x2 = 0.519 | 782.5 ± 2.4 | 2.31 ± 0.06
363.15 K, 21420 kPa, x2 = 0.199 | 778.2 ± 2.4 | 4.33 ± 0.11
363.15 K, 42180 kPa, x2 = 0.519 | 799.3 ± 2.5 | 3 ± 0.08
363.15 K, 42250 kPa, x2 = 0.299 | 793.2 ± 2.4 | 4.8 ± 0.12
363.15 K, 42490 kPa, x2 = 0.199 | 792.2 ± 2.4 | 5.75 ± 0.15
363.15 K, 56170 kPa, x2 = 0.519 | 809.2 ± 2.5 | 3.43 ± 0.09
363.15 K, 56390 kPa, x2 = 0.299 | 801.8 ± 2.5 | 5.69 ± 0.14
363.15 K, 56730 kPa, x2 = 0.199 | 800.5 ± 2.5 | 6.83 ± 0.18
363.15 K, 70120 kPa, x2 = 0.519 | 818 ± 2.5 | 4.08 ± 0.11
363.15 K, 70320 kPa, x2 = 0.299 | 809.6 ± 2.5 | 6.81 ± 0.17
363.15 K, 70780 kPa, x2 = 0.199 | 807.9 ± 2.5 | 8.08 ± 0.21
